# Measured values taken from publication PMC10969742, “A Phase I Study of the Oral Dual-Acting Pan-PI3K/mTOR Inhibitor Bimiralisib in Patients with Advanced Solid Tumors” (Cancers, 2024).
# Where two headings read alike, the source gives them in different places.
# Test: Plasma pharmacokinetics of bimiralisib, non-compartmental analysis (LC-MS)
# Assay type: in vivo, human
# Settings: for AUC(0-t) / Cmax / Tmax: human, plasma, oral; for Cmax: read-out: Cmax Mean (%CV); for Tmax: read-out: Tmax Median, (Range)
# Experimental: Blood samples were collected to enable full PK profiling of bimiralisib. The PK samples were taken pre-dose and at 0.5, 1, 2, 4, 6, 8, and 24 h post-dosing in the three schedules, with additional timepoints depending on the schedule (48 h in the continuous schedule, 12, 16, and 48 h in intermittent schedule A and 12, 16, and 72 h in intermittent schedule B). PK sampling was repeated on cycle 1 Day 8 (continuous schedule: pre-dose and 1 h post-dose; intermittent schedules A and B: pre-dose and 0.5, 1, 2, 4, 6, 8, and 24 h post-dose), on cycle 1 Day 15 (continuous schedule: pre-dose and 0.5, 1, 2, 4, 6 and 8 h post-dose; intermittent schedules A and B: pre-dose and 4 h post-dose), and on cycle 2 Day 1 (continuous dosing: pre-dose and 1 h post-dose). Samples were sent to a central laboratory for analysis using liquid-chromatography mass spectrometry. The pharmacokinetics of bimiralisib were determined by non-compartmental analysis. Area under the concentration vs. time curve (AUC) was calculated using the linear up log down trapezoidal method. Accumulation was calculated as the ratio of cycle 1 on Day 15 AUC0–8h versus cycle 1 on Day -3 AUC0–8h.
# [1] = 80 mg, Continuous Dosing, 80 mg, Day 15, 7 patients
# [2] = 80 mg, Continuous Dosing, 80 mg, Day -3, 11 patients
# [3] = 80 mg, Intermittent Dose Schedule A, 80 mg, Day 8, 3 patients
# [4] = 80 mg, Intermittent Dose Schedule A, 80 mg, Day -3, 4 patients
# [5] = 80 mg, Intermittent Dose Schedule B, 80 mg, Day 1, 4 patients
# [6] = 80 mg, Intermittent Dose Schedule B, 80 mg, Day 8, 4 patients
# [7] = 100 mg, Continuous Dosing, 100 mg, Day 1, 5 patients
# [8] = 100 mg, Continuous Dosing, 100 mg, Day 15, 2 patients
# [9] = 100 mg, Intermittent Dose Schedule A, 100 mg, Day -3, 4 patients
# [10] = 100 mg, Intermittent Dose Schedule B, 100 mg, Day 1, 7 patients
# [11] = 100 mg, Intermittent Dose Schedule B, 100 mg, Day 8, 6 patients
# [12] = 120 mg, Continuous Dosing, 120 mg, Day 1, 5 patients
# [13] = 120 mg, Continuous Dosing, 120 mg, Day 15, 1 patient
# [14] = 120 mg, Intermittent Dose Schedule A, 120 mg, Day 8, 3 patients
# [15] = 120 mg, Intermittent Dose Schedule A, 120 mg, Day -3, 4 patients
# [16] = 120 mg, Intermittent Dose Schedule B, 120 mg, Day 1, 3 patients
# [17] = 120 mg, Intermittent Dose Schedule B, 120 mg, Day 8, 3 patients
# [18] = 140 mg, Intermittent Dose Schedule A, 140 mg, Day 8, 6 patients
compound,measurement,setting,value
"Nc1cc(C(F)(F)F)c(-c2nc(N3CCOCC3)nc(N3CCOCC3)n2)cn1 [bimiralisib, 5-(4,6-Dimorpholino-1,3,5-triazin-2-yl)-4-(trifluoromethyl)pyridin-2-amine]",Dose proportionality of concentration-time data,"all dosing schedules, 80–200 mg",not proportional to doses
same,"Median half-life, calculated from accumulation","continuous schedule, range < 6–146 h",39.5 h
same,Median accumulation ratio (cycle 1 Day 15 AUC0–8h versus Day -3 AUC0–8h),"continuous schedule, range, <1.0–9.3",2.9
same,AUC(0-t),"80 mg, Continuous Dosing, 80 mg, Day 15, 7 patients, read-out: AUC0–8 Geometric Mean (%CV)",4090 ng·h/mL
same,Cmax,[1],766 ng/mL
same,Tmax,[1],1 h
same,AUC(0-t),"80 mg, Continuous Dosing, 80 mg, Day -3, 11 patients, read-out: AUC0–8 Geometric Mean (%CV)",1530 ng·h/mL
same,AUC(0-t),"80 mg, Continuous Dosing, 80 mg, Day -3, 11 patients, read-out: AUC0–24 Geometric Mean (%CV)",4290 ng·h/mL
same,Cmax,[2],407 ng/mL
same,Tmax,[2],2 h
same,AUC(0-t),"80 mg, Intermittent Dose Schedule A, 80 mg, Day 8, 3 patients, read-out: AUC0–8 Geometric Mean (%CV)",2350 ng·h/mL
same,Cmax,[3],614 ng/mL
same,Tmax,[3],1 h
same,AUC(0-t),"80 mg, Intermittent Dose Schedule A, 80 mg, Day 8, n = 1, read-out: AUC0–24 Geometric Mean (%CV)",6740 ng·h/mL
same,AUC(0-t),"80 mg, Intermittent Dose Schedule A, 80 mg, Day -3, 4 patients, read-out: AUC0–8 Geometric Mean (%CV)",1580 ng·h/mL
same,AUC(0-t),"80 mg, Intermittent Dose Schedule A, 80 mg, Day -3, 4 patients, read-out: AUC0–24 Geometric Mean (%CV)",3540 ng·h/mL
same,Cmax,[4],410 ng/mL
same,Tmax,[4],1.5 h
same,AUC(0-t),"80 mg, Intermittent Dose Schedule B, 80 mg, Day 1, 4 patients, read-out: AUC0–8 Geometric Mean (%CV)",1680 ng·h/mL
same,AUC(0-t),"80 mg, Intermittent Dose Schedule B, 80 mg, Day 1, 4 patients, read-out: AUC0–24 Geometric Mean (%CV)",4000 ng·h/mL
same,Cmax,[5],341 ng/mL
same,Tmax,[5],3 h
same,AUC(0-t),"80 mg, Intermittent Dose Schedule B, 80 mg, Day 8, 4 patients, read-out: AUC0–8 Geometric Mean (%CV)",2600 ng·h/mL
same,Cmax,[6],681 ng/mL
same,Tmax,[6],1.5 h
same,AUC(0-t),"80 mg, Intermittent Dose Schedule B, 80 mg, Day 8, n = 3, read-out: AUC0–24 Geometric Mean (%CV)",6350 ng·h/mL
same,AUC(0-t),"100 mg, Continuous Dosing, 100 mg, Day 1, 5 patients, read-out: AUC0–8 Geometric Mean (%CV)",1690 ng·h/mL
same,AUC(0-t),"100 mg, Continuous Dosing, 100 mg, Day 1, 5 patients, read-out: AUC0–24 Geometric Mean (%CV)",4660 ng·h/mL
same,Cmax,[7],441 ng/mL
same,Tmax,[7],1.7 h
same,AUC(0-t),"100 mg, Continuous Dosing, 100 mg, Day 15, 2 patients, read-out: AUC0–8 Geometric Mean (%CV)",5750 ng·h/mL
same,Cmax,[8],1110 ng/mL
same,Tmax,[8],2 h
same,AUC(0-t),"100 mg, Intermittent Dose Schedule A, 100 mg, Day 8, 3 patients, read-out: AUC0–8 Geometric Mean (%CV)",3910 ng·h/mL
same,Tmax,"100 mg, Intermittent Dose Schedule A, 100 mg, Day 8, 3 patients",1 h
same,AUC(0-t),"100 mg, Intermittent Dose Schedule A, 100 mg, Day 8, n = 2, read-out: AUC0–24 Geometric Mean (%CV)",12400 ng·h/mL
same,AUC(0-t),"100 mg, Intermittent Dose Schedule A, 100 mg, Day -3, 4 patients, read-out: AUC0–8 Geometric Mean (%CV)",1970 ng·h/mL
same,AUC(0-t),"100 mg, Intermittent Dose Schedule A, 100 mg, Day -3, 4 patients, read-out: AUC0–24 Geometric Mean (%CV)",4170 ng·h/mL
same,Cmax,[9],543 ng/mL
same,Tmax,[9],1 h
same,AUC(0-t),"100 mg, Intermittent Dose Schedule B, 100 mg, Day 1, 7 patients, read-out: AUC0–8 Geometric Mean (%CV)",1920 ng·h/mL
same,AUC(0-t),"100 mg, Intermittent Dose Schedule B, 100 mg, Day 1, 7 patients, read-out: AUC0–24 Geometric Mean (%CV)",4520 ng·h/mL
same,Cmax,[10],562 ng/mL
same,Tmax,[10],2 h
same,AUC(0-t),"100 mg, Intermittent Dose Schedule B, 100 mg, Day 8, 6 patients, read-out: AUC0–8 Geometric Mean (%CV)",2880 ng·h/mL
same,Cmax,[11],714 ng/mL
same,Tmax,[11],1.5 h
same,AUC(0-t),"100 mg, Intermittent Dose Schedule B, 100 mg, Day 8, n = 4, read-out: AUC0–24 Geometric Mean (%CV)",6200 ng·h/mL
same,AUC(0-t),"120 mg, Continuous Dosing, 120 mg, Day 1, 5 patients, read-out: AUC0–8 Geometric Mean (%CV)",2990 ng·h/mL
same,AUC(0-t),"120 mg, Continuous Dosing, 120 mg, Day 1, 5 patients, read-out: AUC0–24 Geometric Mean (%CV)",7600 ng·h/mL
same,Cmax,[12],876 ng/mL
same,Tmax,[12],2 h
same,AUC(0-t),"120 mg, Continuous Dosing, 120 mg, Day 15, 1 patient, read-out: AUC0–8 Geometric Mean (%CV)",6430 ng·h/mL
same,Cmax,[13],982 ng/mL
same,Tmax,[13],8 h
same,AUC(0-t),"120 mg, Intermittent Dose Schedule A, 120 mg, Day 8, 3 patients, read-out: AUC0–8 Geometric Mean (%CV)",3710 ng·h/mL
same,AUC(0-t),"120 mg, Intermittent Dose Schedule A, 120 mg, Day 8, 3 patients, read-out: AUC0–24 Geometric Mean (%CV)",8940 ng·h/mL
same,Cmax,[14],872 ng/mL
same,Tmax,[14],1 h
same,AUC(0-t),"120 mg, Intermittent Dose Schedule A, 120 mg, Day -3, 4 patients, read-out: AUC0–8 Geometric Mean (%CV)",2590 ng·h/mL
same,AUC(0-t),"120 mg, Intermittent Dose Schedule A, 120 mg, Day -3, 4 patients, read-out: AUC0–24 Geometric Mean (%CV)",5590 ng·h/mL
same,Cmax,[15],549 ng/mL
same,Tmax,[15],3 h
same,AUC(0-t),"120 mg, Intermittent Dose Schedule B, 120 mg, Day 1, 3 patients, read-out: AUC0–8 Geometric Mean (%CV)",1530 ng·h/mL
same,AUC(0-t),"120 mg, Intermittent Dose Schedule B, 120 mg, Day 1, 3 patients, read-out: AUC0–24 Geometric Mean (%CV)",3340 ng·h/mL
same,Cmax,[16],471 ng/mL
same,Tmax,[16],1 h
same,AUC(0-t),"120 mg, Intermittent Dose Schedule B, 120 mg, Day 8, 3 patients, read-out: AUC0–8 Geometric Mean (%CV)",2210 ng·h/mL
same,AUC(0-t),"120 mg, Intermittent Dose Schedule B, 120 mg, Day 8, 3 patients, read-out: AUC0–24 Geometric Mean (%CV)",5850 ng·h/mL
same,Cmax,[17],594 ng/mL
same,Tmax,[17],1 h
same,AUC(0-t),"140 mg, Intermittent Dose Schedule A, 140 mg, Day 8, 6 patients, read-out: AUC0–8 Geometric Mean (%CV)",3220 ng·h/mL
same,Cmax,[18],923 ng/mL
same,Tmax,[18],1 h
same,AUC(0-t),"140 mg, Intermittent Dose Schedule A, 140 mg, Day 8, n = 3, read-out: AUC0–24 Geometric Mean (%CV)",7590 ng·h/mL
same,AUC(0-t),"140 mg, Intermittent Dose Schedule A, 140 mg, Day -3, 6 patients, read-out: AUC0–8 Geometric Mean (%CV)",2580 ng·h/mL
same,AUC(0-t),"140 mg, Intermittent Dose Schedule A, 140 mg, Day -3, 6 patients, read-out: AUC0–24 Geometric Mean (%CV)",5810 ng·h/mL
